Data taken from paper PMC11574021, “CEP192 localises mitotic Aurora-A activity by priming its interaction with TPX2” (The EMBO Journal, 2024).

Key:
[1] = system: LATS2-pS83 in RPE1 p53-/- cells; assay: Immunofluorescence, LATS2-pS83 spindle pole signal intensity, RPE1 p53-/-; assay type: cell-based, Homo sapiens; conditions: Aurora-A inhibitor 30 min (500 nM)
Description: (§1) As noted in the figures, the following drugs were incubated with cells for 30 min at 37 °C: Aurora-B-i ZM447439 2 µM [10 mM], PLK1-I BI2536 1 µM [10 mM] and Aurora-A-i MLN8237 [5 mM] was used at 250 and 500 nM in U251 and RPE1 cells, respectively. Drugs were resuspended in DMSO to the stock concentrations indicated in square brackets. BI2536 (HY-50698), MLN8237 (HY-10971) and ZM447439 (HY-10128) were all purchased from MedChemExpress. For western blotting, a 20-min pre-treatment with proteasome inhibitor (20 µM MG-132, MerckMillipore, 47490 [20 mM]) was required prior to the addition of DMSO control or kinase inhibitors. This prevented mitotic exit as a consequence of checkpoint override following Aurora-A and Aurora-B inhibitor addition.
(§2) For siRNA depletion, 1 × 10^5 cells were seeded in six-well plates and transfected as described above for 48 h prior to fixation. For all other experiments, 2.5 × 10^5 cells were seeded in six-well plates and grown for 24 h before fixation. All cells were grown on 12 mm diameter glass coverslips (VWR, 631–1577). […]
(§3) For CEP192, LATS2-pS83, PCNT, PLK1 and γ-tubulin intensity, a 20-pixel diameter circle was centred over each centrosome and the intensity measured. […]

[2] = system: PLK1 in RPE1 p53-/- cells; assay: Immunofluorescence, PLK1 centrosomal signal intensity, RPE1 p53-/-; assay type: cell-based, Homo sapiens; conditions: Aurora-A inhibitor 30 min
Description: as §1, §2, §3

Structure (SMILES): COc1cc(Nc2ncc3c(n2)-c2ccc(Cl)cc2C(c2c(F)cccc2OC)=NC3)ccc1C(=O)O [Alisertib]
- reduction of pS83 LATS2 levels [1]: 50%
- reduction of pS83 LATS2 levels ([1]; listed as Aurora-A inhibition): about 50%
- centrosomal Plk1 levels [2]: negative trend
